Laboratory results as given in patent publication US9139532B2, “Pyrazolyl guanidine F1F0-atpase inhibitors and therapeutic uses thereof” (Lycera Corporation, priority 2010, dated 2015).
Where two headings read alike, the source gives them in different places.

Experiments:
[1] = biological target: T1, F1F0-ATPase (Bos taurus, UniProt P13621); test: Inhibition of F1F0-ATPase activity in synthesizing ATP; format: biochemical; settings: inhibition of ATP synthesis by F1F0-ATPase; read-out: ATP Syn IC50
T1 construct: from tissue

[2] = system: Ramos cells; test: Cytotoxicity in Ramos cells; format: cell-based; settings: cytotoxicity in Ramos cells, read-out: Ramos Cell EC50

SMILES	IC50 [1] [µM]	EC50 [2] [µM]	EC50 ([2]; Homo sapiens) [µM]
CCC(C)N/C(=N/C(=O)c1ccc(F)c(F)c1)Nc1cc(-c2ccc(C)c(F)c2)n[nH]1 (centres unmarked) [Compound A-325]	< 10	< 10	
CCc1cc(C(=O)/N=C(\Nc2cc(-c3ccc(F)cc3)[nH]n2)NC(C)(C)C)ccn1 [Compound A-177]	< 10	< 10	
COC[C@H](C)N/C(=N/C(=O)c1ccc(F)cc1)Nc1cc(-c2ccc(C)c(F)c2)n[nH]1 [Compound A-205]	< 10		< 10
O=C(N=C(NCc1ccc(F)cc1Cl)Nc1cc(-c2cc(F)cc(F)c2)n[nH]1)c1ccc(C(F)(F)F)cc1 [Compound A-292]	< 10		< 10
O=C(/N=C(\Nc1cc(C(F)(F)F)[nH]n1)NC1CCCCCC1)c1ccc(F)c(F)c1 [Compound A-41]	< 10		< 10
COC(=O)c1cccc(C(=O)/N=C(\Nc2cc(-c3ccc(F)cc3)n[nH]2)NC(C)(C)C)c1 [Compound A-342]	< 10	< 10	
CC(C)(C)N/C(=N/C(=O)c1ccc(F)c(F)c1)Nc1cc(-c2cccc(Cl)c2)[nH]n1 [Compound A-136]	< 10	< 10	
CC(C)CN/C(=N/C(=O)c1ccc(C(F)(F)F)cc1)Nc1cc(-c2cc(F)cc(F)c2)n[nH]1 [Compound A-293]	< 10	< 10	
CC(C)N/C(=N/C(=O)c1ccc(C(F)(F)F)cc1)Nc1cc(-c2ccc(Cl)cc2)n[nH]1 [Compound A-241]	< 10	< 10	
CC(C)(C)NC(=NC(=O)c1ccc(Cl)c(F)c1)Nc1cc(-c2cccc(Cl)c2)[nH]n1 [Compound A-468]	< 10		< 10
COc1ccccc1C(=O)/N=C(\Nc1cc(-c2ccc(F)cc2)[nH]n1)NC(C)(C)C [Compound A-157]	> 10	> 10	
O=C(N=C(Nc1cc(-c2ccc(F)cc2)n[nH]1)NC1CCCC1)c1ccc(Cl)c(F)c1 [Compound A-221]	< 10		< 10
CC(C)N/C(=N/C(=O)c1cccc(F)c1)Nc1cc(-c2ccc(F)cc2)n[nH]1 [Compound A-390]	< 10	> 10	
CC(C)CN/C(=N/C(=O)c1ccc(F)cc1)Nc1cc(-c2ccc(F)cc2)[nH]n1 [Compound A-513]	< 10	< 10	
CC(C)CNC(=NC(=O)c1ccc(Cl)c(F)c1)Nc1cc(-c2ccc(Cl)cc2)n[nH]1 [Compound A-381]	< 10		< 10
CCOCCCN/C(=N/C(=O)c1ccc(C(F)(F)F)cc1)Nc1cc(C)[nH]n1 [Compound A-184]	> 10	> 10	
Cc1ccc(-c2cc(N/C(=N\C(=O)c3ccc(Cl)c(F)c3)Nc3cc(F)cc(Cl)c3)n[nH]2)cc1 [Compound A-150]	< 10	< 10	
CC(C)(C)N/C(=N/C(=O)c1cccc(C(F)(F)F)c1)Nc1cc(-c2cccc(Cl)c2)[nH]n1 [Compound A-128]	< 10	< 10	
Cc1ccc(-c2cc(N/C(=N\C(=O)c3ccc(F)c(F)c3)Nc3ccc(F)cc3Cl)[nH]n2)cc1F [Compound A-318]	> 10	< 10	
COCC(C)NC(=NC(=O)c1ccc(F)c(F)c1)Nc1cc(-c2ccc(Cl)cc2)n[nH]1 (centres unmarked) [Compound A-376]	< 10		< 10
CC1(N/C(=N/C(=O)c2ccc(Cl)cc2)Nc2cc(C(F)(F)F)[nH]n2)CCC1 [Compound A-6]	< 10		< 10

SMILES	IC50 [1] [µM]	EC50 [2] [µM]	EC50 ([2]; Homo sapiens) [µM]
COCC(C)NC(=NC(=O)c1ccc(F)c(F)c1)Nc1cc(-c2cc(F)cc(Cl)c2)n[nH]1 (centres unmarked) [Compound A-246]	< 10		< 10
CC(C)(C)NC(=NC(=O)c1ccnc(N)c1)Nc1cc(-c2ccc(F)cc2)[nH]n1 [Compound A-486]	< 10		< 10
O=C(/N=C(\Nc1cc(-c2ccc(Cl)cc2)n[nH]1)NC1CCOCC1)c1ccc(Cl)c(F)c1 [Compound A-464]	> 10	> 10	
CCOCC(C)NC(=NC(=O)c1ccc(C(F)(F)F)cc1)Nc1cc(-c2ccc(Cl)cc2)n[nH]1 (centres unmarked) [Compound A-237]	< 10	< 10	
Cc1ccc(-c2cc(N/C(=N\C(=O)c3ccc(F)c(F)c3)NC(C)C(C)C)[nH]n2)cc1F (centres unmarked) [Compound A-324]	< 10	< 10	
Cc1cc(N/C(=N\C(=O)c2ccc(C(F)(F)F)cc2)NC(C)C)n[nH]1 [Compound A-190]	> 10	> 10	
Cc1cc(C(=O)/N=C(/NCC(C)(C)C)Nc2cc(C(F)(F)F)[nH]n2)ccn1 [Compound A-85]	< 10		> 10
C[C@H](N/C(=N\C(=O)c1ccc(Cl)cc1)Nc1cc(C(F)(F)F)n[nH]1)C1CCCCC1 [Compound A-109]	< 10		< 10
O=C(/N=C(/NCc1ccc(F)cc1Cl)Nc1cc(-c2ccccc2)[nH]n1)c1ccc(Cl)c(F)c1 [Compound A-143]	< 10	< 10	
COc1ccccc1C(=O)N=C(NCc1ccc(F)cc1Cl)Nc1cc(C(F)(F)F)n[nH]1 [Compound A-543]	< 10		< 10
CC(C)(C)N/C(=N/C(=O)c1cccnc1C(F)(F)F)Nc1cc(-c2ccc(F)cc2)[nH]n1 [Compound A-167]	< 10	< 10	
O=C(N=C(Nc1cc(-c2ccc(F)cc2)n[nH]1)NC1CCOCC1)c1ccc(Cl)c(F)c1 [Compound A-139]	> 10		> 10
CC(C)CN/C(=N/C(=O)c1cccc([S+](C)[O-])c1)Nc1cc(-c2ccc(F)cc2)n[nH]1 (centres unmarked) [Compound A-576]	< 10	< 10	
CCC(C)N/C(=N/C(=O)c1cccc(OC)c1)Nc1cc(-c2ccc(Cl)cc2)n[nH]1 (centres unmarked) [Compound A-170]	< 10		< 10
CCOCCN/C(=N/C(=O)c1ccc(F)cc1)Nc1cc(C(F)(F)F)[nH]n1 [Compound A-410]	< 10	> 10	
CC(C)(C)N/C(=N/C(=O)c1cccc(F)c1)Nc1cc(-c2ccc(F)cc2)n[nH]1 [Compound A-456]	< 10	< 10	
COCC(C)N/C(=N/C(=O)c1ccc(Cl)c(F)c1)Nc1cc(C(F)(F)F)n[nH]1 (centres unmarked) [Compound A-120]	< 10		< 10
Cc1ccccc1CNC(=NC(=O)c1ccc(Cl)cc1)Nc1cc(-c2ccc(F)cc2)n[nH]1 [Compound A-401]	< 10		< 10
Cc1ccc(-c2cc(NC(=NC(=O)c3ccc(Cl)c(F)c3)NC(C)(C)C)[nH]n2)cc1 [Compound A-470]	< 10		> 10
Cc1cc(C(=O)N=C(Nc2cc(-c3ccc(F)cc3)n[nH]2)NC(C)(C)C)ccc1F [Compound A-556]	< 10		< 10
O=C(/N=C(\Nc1cc(-c2ccc(F)cc2)n[nH]1)NC1COC1)c1ccc(F)c(F)c1 [Compound A-199]	< 10	> 10	

SMILES	IC50 [1] [µM]	EC50 [2] [µM]	EC50 ([2]; Homo sapiens) [µM]
O=C(/N=C(/NCc1ccc(F)cc1Cl)Nc1cc(-c2ccc(F)cc2)n[nH]1)c1ccc(Cl)cc1 [Compound A-454]	< 10	< 10	
COc1cccc(CN/C(=N/C(=O)c2cccc(F)c2)Nc2cc(-c3ccc(F)cc3)[nH]n2)c1 [Compound A-398]	< 10	< 10	
CC1(C)OCC(CN/C(=N/C(=O)c2ccc(F)cc2)Nc2cc(C(F)(F)F)[nH]n2)O1 (centres unmarked) [Compound A-412]	< 10	> 10	
Cc1cc(N/C(=N\C(=O)c2ccc(F)c(F)c2)NCC(C)(C)C)n[nH]1 [Compound A-187]	< 10	< 10	
CC(C)(C)N/C(=N/C(=O)c1ccc(F)c(F)c1)Nc1cc(C(F)(F)F)n[nH]1 [Compound A-12]	< 10		< 10
CC1(CN/C(=N/C(=O)c2ccc(F)cc2)Nc2cc(-c3ccc(F)cc3)n[nH]2)COC1 [Compound A-196]	< 10	< 10	
O=C(/N=C(\Nc1cc(-c2cc(F)cc(Cl)c2)n[nH]1)NC1CCCC1)c1ccc(F)c(F)c1 [Compound A-289]	< 10	< 10	
O=C(/N=C(/Nc1cc(F)cc(Cl)c1)Nc1cc(-c2ccccc2)n[nH]1)c1ccc(F)c(F)c1 [Compound A-436]	< 10	> 10	
CC(C)(C)N/C(=N/C(=O)c1cccc(F)c1)Nc1cc(-c2cccc(Cl)c2)n[nH]1 [Compound A-438]	< 10	< 10	
O=C(/N=C(/NCc1ccc(F)c(Cl)c1)Nc1cc(C(F)F)[nH]n1)c1ccc(C(F)(F)F)cc1 [Compound A-59]	< 10		> 10
CC(N/C(=N/C(=O)c1ccc(Cl)cc1)Nc1cc(C(F)(F)F)[nH]n1)c1ccccc1Cl (centres unmarked) [Compound A-34]	< 10		< 10
CC(C)N/C(=N/C(=O)c1ccc(Cl)c(F)c1)Nc1cc(C(F)(F)F)n[nH]1 [Compound A-113]	< 10		< 10
Cc1ccc(-c2cc(N/C(=N\C(=O)c3ccc(C(F)(F)F)cc3)NC3CCCC3)[nH]n2)cc1F [Compound A-326]	< 10	> 10	
CC(C)(C)N/C(=N/C(=O)c1ccc(Cl)cc1)Nc1n[nH]cc1C#N [Compound A-37]	< 10		> 10
Cc1ccc(-c2cc(N/C(=N\C(=O)c3ccc(F)c(F)c3)NC(C)(C)C)[nH]n2)cc1 [Compound A-427]	< 10	< 10	
O=C(/N=C(/NCC(F)(F)F)Nc1cc(C(F)(F)F)n[nH]1)c1ccc(F)c(F)c1 [Compound A-11]	< 10		< 10
CCOC(C)CN/C(=N/C(=O)c1ccc(F)c(F)c1)Nc1cc(-c2ccc(Cl)cc2)n[nH]1 (centres unmarked) [Compound A-214]	< 10	< 10	
COc1ccc(CN/C(=N/C(=O)c2ccccc2)Nc2cc(C(F)(F)F)[nH]n2)cc1 [Compound A-425]	< 10	< 10	
N#Cc1ccc(C(=O)/N=C(/NCc2ccc(F)cc2Cl)Nc2cc(C(F)(F)F)[nH]n2)cc1 [Compound A-81]	< 10		< 10
